Earlier results as cited in patent publication US20250057810A1, “AQUEOUS MELATONIN FORMULATION” (AGB-Pharma AB, priority 2021, published 2025).

Conditions: in vivo

COc1ccc2[nH]cc(CCNC(C)=O)c2c1 [melatonin, N-acetyl-5-methoxytryptamine]
blood levels returning to normal daytime levels after administration: 6 to 8 h
